{"source": "BindingDB's records for doi:10.1016/j.chembiol.2014.12.015", "about": "(University of Florida College of Medicine, 2015)", "assay_in_all_cases": "HDAC Activity Assays", "key": {"[1]": {"biological_target": "Histone deacetylase 3/Nuclear receptor corepressor 2 [395-498] (Homo sapiens, UniProt O15379)", "sequence (O15379 whole entry)": "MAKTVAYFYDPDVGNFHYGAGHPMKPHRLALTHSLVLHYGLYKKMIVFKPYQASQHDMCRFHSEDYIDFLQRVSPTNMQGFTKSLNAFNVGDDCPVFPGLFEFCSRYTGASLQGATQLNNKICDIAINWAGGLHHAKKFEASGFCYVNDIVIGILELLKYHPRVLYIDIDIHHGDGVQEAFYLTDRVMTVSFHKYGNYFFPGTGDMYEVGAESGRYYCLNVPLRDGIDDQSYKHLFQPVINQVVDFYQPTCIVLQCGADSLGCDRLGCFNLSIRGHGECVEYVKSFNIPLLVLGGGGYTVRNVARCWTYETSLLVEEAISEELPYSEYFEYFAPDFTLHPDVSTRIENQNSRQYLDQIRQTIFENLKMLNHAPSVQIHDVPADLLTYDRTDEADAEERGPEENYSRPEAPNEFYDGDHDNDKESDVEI", "sequence (Q9Y618 395-498, further chain)": "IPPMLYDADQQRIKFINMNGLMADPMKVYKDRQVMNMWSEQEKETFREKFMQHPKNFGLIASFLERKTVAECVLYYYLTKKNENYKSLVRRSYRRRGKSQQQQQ", "experimental": "(§1) The enzyme activities were initially tested in a serial dilution of each HDAC using the HDAC-Glo I/II reagents (Promega) according to the manufacturer s protocol. Luminescence was detected using the BMG POLARstar Omega microplate reader. A concentration of each HDAC within the linear response region was used for assaying inhibition of HDAC activity by UF010 and analogs. Each compound was tested in 10-point dose-response assay in triplicate."}, "[2]": {"biological_target": "Histone deacetylase 2/Nuclear receptor corepressor 2 [395-498] (Homo sapiens, UniProt Q92769)", "sequence (Q92769 whole entry)": "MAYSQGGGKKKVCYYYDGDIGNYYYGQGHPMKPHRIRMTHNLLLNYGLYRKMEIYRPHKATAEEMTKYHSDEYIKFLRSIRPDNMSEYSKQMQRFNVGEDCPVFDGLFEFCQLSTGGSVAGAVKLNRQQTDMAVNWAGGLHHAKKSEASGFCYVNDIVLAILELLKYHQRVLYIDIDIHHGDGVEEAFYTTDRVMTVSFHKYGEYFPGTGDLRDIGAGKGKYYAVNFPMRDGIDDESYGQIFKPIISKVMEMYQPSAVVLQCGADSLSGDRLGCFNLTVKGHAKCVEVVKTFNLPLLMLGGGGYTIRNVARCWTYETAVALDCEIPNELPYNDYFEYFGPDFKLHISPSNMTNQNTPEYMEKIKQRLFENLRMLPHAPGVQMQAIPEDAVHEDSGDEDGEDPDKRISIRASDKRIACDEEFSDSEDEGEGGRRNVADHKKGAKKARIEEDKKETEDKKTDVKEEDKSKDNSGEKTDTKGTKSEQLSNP", "sequence (Q9Y618 395-498, further chain)": "as the sequence (Q9Y618 395-498, further chain) above", "experimental": "as §1"}, "[3]": {"biological_target": "Histone deacetylase 1/Nuclear receptor corepressor 2 [395-498] (Homo sapiens, UniProt Q13547)", "sequence (Q13547 whole entry)": "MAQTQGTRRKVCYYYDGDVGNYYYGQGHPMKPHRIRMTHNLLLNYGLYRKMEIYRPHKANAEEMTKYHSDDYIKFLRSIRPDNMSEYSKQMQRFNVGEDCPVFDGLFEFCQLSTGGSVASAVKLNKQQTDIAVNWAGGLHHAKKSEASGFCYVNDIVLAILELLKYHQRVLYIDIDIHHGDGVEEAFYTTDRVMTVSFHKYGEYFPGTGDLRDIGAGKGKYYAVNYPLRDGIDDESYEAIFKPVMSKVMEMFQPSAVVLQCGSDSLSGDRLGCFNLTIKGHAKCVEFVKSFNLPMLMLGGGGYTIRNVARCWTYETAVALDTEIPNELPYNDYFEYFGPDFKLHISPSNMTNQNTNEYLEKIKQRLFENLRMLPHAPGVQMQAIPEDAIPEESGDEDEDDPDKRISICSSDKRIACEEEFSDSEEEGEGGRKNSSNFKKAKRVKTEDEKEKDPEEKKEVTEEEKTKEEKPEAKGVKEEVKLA", "sequence (Q9Y618 395-498, further chain)": "as the sequence (Q9Y618 395-498, further chain) above", "experimental": "as §1"}, "[4]": {"biological_target": "T1, Histone deacetylase 6 (Homo sapiens, UniProt Q9UBN7)", "T1 sequence (Q9UBN7 whole entry)": "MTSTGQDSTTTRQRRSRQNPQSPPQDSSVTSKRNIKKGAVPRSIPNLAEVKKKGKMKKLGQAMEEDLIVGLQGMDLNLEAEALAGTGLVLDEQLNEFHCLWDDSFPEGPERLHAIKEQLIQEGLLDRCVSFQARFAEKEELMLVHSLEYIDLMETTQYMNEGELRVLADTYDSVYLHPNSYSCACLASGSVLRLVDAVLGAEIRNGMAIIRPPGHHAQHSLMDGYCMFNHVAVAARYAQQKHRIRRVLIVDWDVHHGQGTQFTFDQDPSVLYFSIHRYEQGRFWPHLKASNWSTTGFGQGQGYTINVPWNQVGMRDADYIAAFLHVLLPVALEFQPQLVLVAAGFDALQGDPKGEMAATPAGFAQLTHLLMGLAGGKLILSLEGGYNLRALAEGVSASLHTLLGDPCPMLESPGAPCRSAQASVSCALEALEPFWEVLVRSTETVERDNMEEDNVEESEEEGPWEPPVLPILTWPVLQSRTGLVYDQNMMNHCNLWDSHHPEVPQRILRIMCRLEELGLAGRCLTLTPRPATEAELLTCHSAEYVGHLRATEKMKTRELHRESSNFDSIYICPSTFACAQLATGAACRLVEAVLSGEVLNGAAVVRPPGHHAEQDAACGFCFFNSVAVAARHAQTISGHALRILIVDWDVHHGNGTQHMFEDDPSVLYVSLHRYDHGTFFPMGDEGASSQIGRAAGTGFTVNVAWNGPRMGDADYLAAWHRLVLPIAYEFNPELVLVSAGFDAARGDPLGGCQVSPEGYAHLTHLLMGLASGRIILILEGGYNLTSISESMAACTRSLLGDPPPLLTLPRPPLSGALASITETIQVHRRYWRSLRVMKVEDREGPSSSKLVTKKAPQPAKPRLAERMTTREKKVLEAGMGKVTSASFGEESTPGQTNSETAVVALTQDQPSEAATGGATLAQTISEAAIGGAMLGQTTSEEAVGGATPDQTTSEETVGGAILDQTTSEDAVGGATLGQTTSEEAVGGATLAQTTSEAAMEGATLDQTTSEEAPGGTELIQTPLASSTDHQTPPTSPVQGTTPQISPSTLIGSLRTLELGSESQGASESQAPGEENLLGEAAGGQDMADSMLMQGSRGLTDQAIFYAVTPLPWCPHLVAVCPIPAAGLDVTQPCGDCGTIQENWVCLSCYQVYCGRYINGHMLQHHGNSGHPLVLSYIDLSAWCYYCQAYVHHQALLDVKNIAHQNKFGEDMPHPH", "experimental": "as §1"}, "[5]": {"biological_target": "T2, Histone deacetylase 8 (Homo sapiens, UniProt Q9BY41)", "T2 sequence (Q9BY41 whole entry)": "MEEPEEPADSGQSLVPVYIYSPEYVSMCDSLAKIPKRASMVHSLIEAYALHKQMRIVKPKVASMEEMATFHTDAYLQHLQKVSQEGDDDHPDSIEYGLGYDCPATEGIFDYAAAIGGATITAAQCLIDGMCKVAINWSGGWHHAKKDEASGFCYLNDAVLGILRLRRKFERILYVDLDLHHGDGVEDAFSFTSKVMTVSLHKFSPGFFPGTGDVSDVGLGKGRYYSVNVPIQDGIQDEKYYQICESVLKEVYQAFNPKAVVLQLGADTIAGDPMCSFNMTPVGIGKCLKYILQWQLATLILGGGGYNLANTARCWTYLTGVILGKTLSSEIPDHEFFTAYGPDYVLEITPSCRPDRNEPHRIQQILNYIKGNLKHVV", "experimental": "as §1"}}}
{"smiles": "O=C(NNCCCC1CCCC1)c1ccc(Br)cc1", "note": "[SR-3365]", "values": [{"measurement": "IC50", "setting": "[1]", "result": "> 50", "unit": "µM"}, {"measurement": "IC50", "setting": "[2]", "result": "> 50", "unit": "µM"}, {"measurement": "IC50", "setting": "[3]", "result": "> 50", "unit": "µM"}]}
{"smiles": "CCCCNNC(=O)c1ccc(N(C)C)cc1", "note": "[SR-3208]", "values": [{"measurement": "IC50", "setting": "[1]", "result": 0.12, "unit": "µM"}, {"measurement": "IC50", "setting": "[4]", "result": 9.57, "unit": "µM"}, {"measurement": "IC50", "setting": "[2]", "result": 0.88, "unit": "µM"}, {"measurement": "IC50", "setting": "[3]", "result": 0.23, "unit": "µM"}, {"measurement": "IC50", "setting": "[5]", "result": 0.72, "unit": "µM"}]}
{"smiles": "O=C(NNCC1CCCC1)c1ccc(Br)cc1", "note": "[SR-3364]", "values": [{"measurement": "IC50", "setting": "[1]", "result": 6.98, "unit": "µM"}, {"measurement": "IC50", "setting": "[2]", "result": 28.4, "unit": "µM"}, {"measurement": "IC50", "setting": "[3]", "result": 8.81, "unit": "µM"}]}
{"smiles": "O=C(NNCCC1CCCC1)c1ccc(Br)cc1", "note": "[SR-3297]", "values": [{"measurement": "IC50", "setting": "[1]", "result": 1.08, "unit": "µM"}, {"measurement": "IC50", "setting": "[2]", "result": 7.65, "unit": "µM"}, {"measurement": "IC50", "setting": "[3]", "result": 7.4, "unit": "µM"}]}
{"smiles": "CN(C)c1ccc(C(=O)NNCC2CCCC2)cc1", "note": "[SR-3298]", "values": [{"measurement": "IC50", "setting": "[1]", "result": 1.67, "unit": "µM"}, {"measurement": "IC50", "setting": "[2]", "result": 3.25, "unit": "µM"}, {"measurement": "IC50", "setting": "[3]", "result": 1.76, "unit": "µM"}]}
{"smiles": "CCCCNNC(=O)c1ccc(OC)cc1", "note": "[SR-3206]", "values": [{"measurement": "IC50", "setting": "[1]", "result": 0.43, "unit": "µM"}, {"measurement": "IC50", "setting": "[2]", "result": 2.52, "unit": "µM"}, {"measurement": "IC50", "setting": "[3]", "result": 1.91, "unit": "µM"}]}
{"smiles": "CCCCNNC(=O)c1ccc(F)cc1", "note": "[SR-3203]", "values": [{"measurement": "IC50", "setting": "[1]", "result": 1.78, "unit": "µM"}, {"measurement": "IC50", "setting": "[2]", "result": 15.1, "unit": "µM"}, {"measurement": "IC50", "setting": "[3]", "result": 13.2, "unit": "µM"}]}
{"smiles": "CCCCNNC(=O)c1ccc(OC(F)(F)F)cc1", "note": "[SR-3204]", "values": [{"measurement": "IC50", "setting": "[1]", "result": 1.35, "unit": "µM"}, {"measurement": "IC50", "setting": "[2]", "result": 9.09, "unit": "µM"}, {"measurement": "IC50", "setting": "[3]", "result": 8.86, "unit": "µM"}]}
{"smiles": "CCCCCCNNC(=O)c1ccc(Br)cc1", "note": "[SR-3367]", "values": [{"measurement": "IC50", "setting": "[1]", "result": 20, "unit": "µM"}, {"measurement": "IC50", "setting": "[4]", "result": 39.1, "unit": "µM"}, {"measurement": "IC50", "setting": "[2]", "result": 16.1, "unit": "µM"}, {"measurement": "IC50", "setting": "[3]", "result": 10.3, "unit": "µM"}]}
{"smiles": "CCCCCNNC(=O)c1ccc(Br)cc1", "note": "[SR-3970]", "values": [{"measurement": "IC50", "setting": "[1]", "result": 0.92, "unit": "µM"}, {"measurement": "IC50", "setting": "[4]", "result": 5.73, "unit": "µM"}, {"measurement": "IC50", "setting": "[2]", "result": 1.92, "unit": "µM"}, {"measurement": "IC50", "setting": "[3]", "result": 1.87, "unit": "µM"}, {"measurement": "IC50", "setting": "[5]", "result": 4.87, "unit": "µM"}]}
{"smiles": "CCCCNNC(=O)c1ccc(C(C)(C)C)cc1", "note": "[SR-3302]", "values": [{"measurement": "IC50", "setting": "[1]", "result": 0.07, "unit": "µM"}, {"measurement": "IC50", "setting": "[4]", "result": 6.83, "unit": "µM"}, {"measurement": "IC50", "setting": "[2]", "result": 1.04, "unit": "µM"}, {"measurement": "IC50", "setting": "[3]", "result": 0.19, "unit": "µM"}, {"measurement": "IC50", "setting": "[5]", "result": 0.49, "unit": "µM"}]}
{"smiles": "CCCCNNC(=O)c1ccc(Br)cc1", "note": "[UF010]", "values": [{"measurement": "IC50", "setting": "[4]", "result": 9.09, "unit": "µM"}, {"measurement": "IC50", "setting": "[5]", "result": 2.83, "unit": "µM"}]}
{"smiles": "CCCCNNC(=O)c1ccc(Cl)cc1", "note": "[SR-3210]", "values": [{"measurement": "IC50", "setting": "[1]", "result": 2.5, "unit": "µM"}, {"measurement": "IC50", "setting": "[2]", "result": 3.8, "unit": "µM"}, {"measurement": "IC50", "setting": "[3]", "result": 3, "unit": "µM"}]}
